Assay results: patent US9920063B2, “Melampomagnolide B derivatives” (Board of Trustees of the University of Arkansas, priority 2013, dated 2018)
Where two headings read alike, the source gives them in different places.

Assays:
COLO 205 = experiment: NCI human tumor cell line panel, Colon Cancer; assay type: cell-based

## C=C1C(=O)O[C@H]2[C@H]1CC/C(COC(=O)c1cc3ccccc3[nH]1)=C\CC[C@@]1(C)O[C@@H]21 [BS-1-28]
COLO 205; Log10 Concentration −4.0
  Percent Growth: −63%
COLO 205; Log10 Concentration −5.0
  Percent Growth: −61%
COLO 205; Log10 Concentration −6.0
  Percent Growth: 39%
COLO 205; Log10 Concentration −7.0
  Percent Growth: 60%
COLO 205; Log10 Concentration −8.0
  Percent Growth: 27%
COLO 205; NCI five dose
  TGI: 2.44E−6
HL-60(TB); Log10 Concentration −4.0
  Percent Growth: −57%
HL-60(TB); Log10 Concentration −5.0
  Percent Growth: −17%
HL-60(TB); Log10 Concentration −6.0
  Percent Growth: 28%
HL-60(TB); Log10 Concentration −7.0
  Percent Growth: 112%
HL-60(TB); Log10 Concentration −8.0
  Percent Growth: 114%
HL-60(TB); NCI five dose
  GI50: 546 nM
  TGI: 4.15E−6
HL-60(TB); read-out: LC50, NCI five dose
  CC50: 65800 nM
MOLT-4
  CC50: > 100000 nM
MOLT-4; MOLT-4, Log10 Concentration −4.0
  Percent Growth: −32%
MOLT-4; MOLT-4, Log10 Concentration −5.0
  Percent Growth: −3%
MOLT-4; MOLT-4, Log10 Concentration −6.0
  Percent Growth: 62%
MOLT-4; MOLT-4, Log10 Concentration −7.0
  Percent Growth: 103%
MOLT-4; MOLT-4, Log10 Concentration −8.0
  Percent Growth: 105%
MOLT-4; MOLT-4, NCI five dose
  GI50: 1510 nM
  TGI: 8.89E−6
SR
  CC50: > 100000 nM
SR; SR, Log10 Concentration −4.0
  Percent Growth: −39%
SR; SR, Log10 Concentration −5.0
  Percent Growth: −28%
SR; SR, Log10 Concentration −6.0
  Percent Growth: 53%
SR; SR, Log10 Concentration −7.0
  Percent Growth: 98%
SR; SR, Log10 Concentration −8.0
  Percent Growth: 162%
SR; SR, NCI five dose
  GI50: 1080 nM
  TGI: 4.51E−6
HOP-92
  CC50: 4660 nM
HOP-92; HOP-92, Log10 Concentration −4.0
  Percent Growth: −97%
HOP-92; HOP-92, Log10 Concentration −5.0
  Percent Growth: −91%
HOP-92; HOP-92, Log10 Concentration −6.0
  Percent Growth: 40%
HOP-92; HOP-92, Log10 Concentration −7.0
  Percent Growth: 71%
HOP-92; HOP-92, Log10 Concentration −8.0
  Percent Growth: 74%
HOP-92; HOP-92, NCI five dose
  GI50: 480 nM
  TGI: 2.02E−6
NCI-H226
  CC50: 7010 nM
NCI-H226; NCI-H226, Log10 Concentration −4.0
  Percent Growth: −71%
NCI-H226; NCI-H226, Log10 Concentration −5.0
  Percent Growth: −73%
NCI-H226; NCI-H226, Log10 Concentration −6.0
  Percent Growth: 74%
NCI-H226; NCI-H226, Log10 Concentration −7.0
  Percent Growth: 88%
NCI-H226; NCI-H226, Log10 Concentration −8.0
  Percent Growth: 92%
NCI-H226; NCI-H226, NCI five dose
  GI50: 1470 nM
  TGI: 3.21E−6
SNB-19
  CC50: 7330 nM
SNB-19; SNB-19, Log10 Concentration −4.0
  Percent Growth: −64%
SNB-19; SNB-19, Log10 Concentration −5.0
  Percent Growth: −70%
SNB-19; SNB-19, Log10 Concentration −6.0
  Percent Growth: 81%
SNB-19; SNB-19, Log10 Concentration −7.0
  Percent Growth: 92%
SNB-19; SNB-19, Log10 Concentration −8.0
  Percent Growth: 57%
SNB-19; SNB-19, NCI five dose
  GI50: 1600 nM
  TGI: 3.93E−6
SK-MEL-28
  CC50: 5740 nM
SK-MEL-28; SK-MEL-28, Log10 Concentration −4.0
  Percent Growth: −93%
SK-MEL-28; SK-MEL-28, Log10 Concentration −5.0
  Percent Growth: 47%
SK-MEL-28; SK-MEL-28, Log10 Concentration −6.0
  Percent Growth: 67%
SK-MEL-28; SK-MEL-28, Log10 Concentration −7.0
  Percent Growth: 101%
SK-MEL-28; SK-MEL-28, Log10 Concentration −8.0
  Percent Growth: 90%
SK-MEL-28; SK-MEL-28, NCI five dose
  GI50: 1280 nM
  TGI: 2.72E−6
OVCAR-3
  CC50: 2660 nM
OVCAR-3; OVCAR-3, Log10 Concentration −4.0
  Percent Growth: −95%
OVCAR-3; OVCAR-3, Log10 Concentration −5.0
  Percent Growth: −92%
OVCAR-3; OVCAR-3, Log10 Concentration −6.0
  Percent Growth: −15%
OVCAR-3; OVCAR-3, Log10 Concentration −7.0
  Percent Growth: 50%
OVCAR-3; OVCAR-3, Log10 Concentration −8.0
  Percent Growth: 19%
OVCAR-3; OVCAR-3, NCI five dose
  TGI: 5.92E−7
OVCAR-8
  CC50: 64600 nM
OVCAR-8; OVCAR-8, Log10 Concentration −4.0
  Percent Growth: −63%
OVCAR-8; OVCAR-8, Log10 Concentration −5.0
  Percent Growth: 5%
OVCAR-8; OVCAR-8, Log10 Concentration −6.0
  Percent Growth: 69%
OVCAR-8; OVCAR-8, Log10 Concentration −7.0
  Percent Growth: 63%
OVCAR-8; OVCAR-8, Log10 Concentration −8.0
  Percent Growth: 58%
OVCAR-8; OVCAR-8, NCI five dose
  GI50: 1990 nM
  TGI: 1.19E−4
786-0
  CC50: 9010 nM
786-0; 786-0, Log10 Concentration −4.0
  Percent Growth: −94%
786-0; 786-0, Log10 Concentration −5.0
  Percent Growth: −90%
786-0; 786-0, Log10 Concentration −6.0
  Percent Growth: 11%
786-0; 786-0, Log10 Concentration −7.0
  Percent Growth: 102%
786-0; 786-0, Log10 Concentration −8.0
  Percent Growth: 96%
786-0; 786-0, NCI five dose
  GI50: 371 nM
  TGI: 1.28E−6
A498
  CC50: 5630 nM
A498; A498, Log10 Concentration −4.0
  Percent Growth: −95%
A498; A498, Log10 Concentration −5.0
  Percent Growth: −99%
A498; A498, Log10 Concentration −6.0
  Percent Growth: 97%
A498; A498, Log10 Concentration −7.0
  Percent Growth: 102%
A498; A498, Log10 Concentration −8.0
  Percent Growth: 110%
A498; A498, NCI five dose
  GI50: 1740 nM
  TGI: 3.43E−6
ACHN
  CC50: 4220 nM
ACHN; ACHN, Log10 Concentration −4.0
  Percent Growth: −95%
ACHN; ACHN, Log10 Concentration −5.0
  Percent Growth: −91%
ACHN; ACHN, Log10 Concentration −6.0
  Percent Growth: 19%
ACHN; ACHN, Log10 Concentration −7.0
  Percent Growth: 55%
ACHN; ACHN, Log10 Concentration −8.0
  Percent Growth: 76%
ACHN; ACHN, NCI five dose
  GI50: 342 nM
  TGI: 1.49E−6
RXF 393
  CC50: 6230 nM
RXF 393; RXF 393, Log10 Concentration −4.0
  Percent Growth: −65%
RXF 393; RXF 393, Log10 Concentration −5.0
  Percent Growth: −77%
RXF 393; RXF 393, Log10 Concentration −6.0
  Percent Growth: 54%
RXF 393; RXF 393, Log10 Concentration −7.0
  Percent Growth: 85%
RXF 393; RXF 393, Log10 Concentration −8.0
  Percent Growth: 73%
RXF 393; RXF 393, NCI five dose
  GI50: 1070 nM
  TGI: 2.58E−6
UO-31
  CC50: 5000 nM
UO-31; UO-31, Log10 Concentration −4.0
  Percent Growth: −89%
UO-31; UO-31, Log10 Concentration −5.0
  Percent Growth: −92%
UO-31; UO-31, Log10 Concentration −6.0
  Percent Growth: 49%
UO-31; UO-31, Log10 Concentration −7.0
  Percent Growth: 74%
UO-31; UO-31, Log10 Concentration −8.0
  Percent Growth: 72%
UO-31; UO-31, NCI five dose
  GI50: 887 nM
  TGI: 2.21E−6
PC-3
  CC50: 6450 nM
PC-3; PC-3, Log10 Concentration −4.0
  Percent Growth: −94%
PC-3; PC-3, Log10 Concentration −5.0
  Percent Growth: −79%
PC-3; PC-3, Log10 Concentration −6.0
  Percent Growth: 73%
PC-3; PC-3, Log10 Concentration −7.0
  Percent Growth: 87%
PC-3; PC-3, Log10 Concentration −8.0
  Percent Growth: 88%
PC-3; PC-3, NCI five dose
  GI50: 1420 nM
  TGI: 3.62E−4
DU-145
  CC50: 5200 nM
DU-145; DU-145, Log10 Concentration −4.0
  Percent Growth: −98%
DU-145; DU-145, Log10 Concentration −5.0
  Percent Growth: −95%
DU-145; DU-145, Log10 Concentration −6.0
  Percent Growth: 63%
DU-145; DU-145, Log10 Concentration −7.0
  Percent Growth: 98%
DU-145; DU-145, Log10 Concentration −8.0
  Percent Growth: 91%
DU-145; DU-145, NCI five dose
  GI50: 1210 nM
  TGI: 2.51E−6
MCF7
  CC50: 6690 nM
MCF7; MCF7, Log10 Concentration −4.0
  Percent Growth: −56%
MCF7; MCF7, Log10 Concentration −5.0
  Percent Growth: −63%
MCF7; MCF7, Log10 Concentration −6.0
  Percent Growth: 11%
MCF7; MCF7, Log10 Concentration −7.0
  Percent Growth: 88%
MCF7; MCF7, Log10 Concentration −8.0
  Percent Growth: 63%
MCF7; MCF7, NCI five dose
  GI50: 302 nM
  TGI: 1.39E−6
HS 57BT
  CC50: > 100000 nM
HS 57BT; HS 57BT, Log10 Concentration −4.0
  Percent Growth: −20%
HS 57BT; HS 57BT, Log10 Concentration −5.0
  Percent Growth: −5%
HS 57BT; HS 57BT, Log10 Concentration −6.0
  Percent Growth: 78%
HS 57BT; HS 57BT, Log10 Concentration −7.0
  Percent Growth: 84%
HS 57BT; HS 57BT, Log10 Concentration −8.0
  Percent Growth: 47%
HS 57BT; HS 57BT, NCI five dose
  TGI: 8.71E−6
